Measurements published in US6372804B1, “Noxious-insect repellent” (Kanebo, Ltd., priority 1991, dated 2002).

Test system: imagoes of the tiger mosquito, Aedes albopictus
Assay: noxious-insect repellency test (treated forearm in a cage of tiger mosquitoes, percent repellency from biting marks)
Type: in vivo
Conditions: lotion or milky lotion containing the compound, tiger mosquito imagoes
Procedure: In each example, the noxious-insect repellency test was conducted as follows:
Test method of noxious-insect repelling effect and durability thereof In order to assess the repelling effect against imagoes of the tiger mosquito, Aedes albopictus, the following test was conducted at a room temperature of 30° C. and a relative humidity of 70% in an air-conditioned room. 10 ml each of test samples was applied to left and right forearms. Each treated forearm was introduced into a wire gauze cage (20 cm L.×15 cm Dia.) containing 50 female and 50 male tiger mosquitoes 5-7 days old after eclosion, for 15 minutes to afford time for biting. The assessment was repeated 30 minutes, 1 hour, 2 hours, 4 hours and 6 hours after the test sample was applied. The number of marks made by biting within each biting time was counted and a percent repellency was calculated using the following formula:
Percent repellency=(X−Y)/X×100 (%)
X: the number of the marks made by biting when the test sample was not applied,
Y: the number of the marks made by biting when the test sample was applied.

SMILES | noxious-insect repelling effect and durability (result in words)
CCCCC(O)C1CC(C)CCC1=O (stereo not shown) [2-(1-hydroxyamyl)-4-methyl-cyclohexanone] | excellent noxious-insect repelling effect and durability
CCCC(O)C1C(O)CCC1CC (stereo not shown) [2-(1-hydroxybutyl)-3-ethyl-cyclopentanol] | excellent noxious-insect repelling effect and durability
CCCC(O)C1C(=O)CCC1CC (stereo not shown) [2-(1-hydroxybutyl)-3-ethyl-cyclopentanone] | excellent noxious-insect repelling effect and durability
CC(O)C1C(O)CCC(C)C1C (stereo not shown) [2-(1-hydroxyethyl)-3,4-dimethyl-cyclohexanol] | excellent noxious-insect repelling effect and durability
CC(O)C1C(=O)CCC(C)C1C (stereo not shown) [2-(1-hydroxyethyl)-3,4-dimethyl-cyclohexanone] | excellent noxious-insect repelling effect and durability
CC1CCC(O)C(C(C)O)C1 (stereo not shown) [2-(1-hydroxyethyl)-4-methyl-cyclohexanol] | excellent noxious-insect repelling effect and durability
CC1CCC(=O)C(C(C)O)C1 (stereo not shown) [2-(1-hydroxyethyl)-4-methyl-cyclohexanone] | excellent noxious-insect repelling effect and durability
CC(O)C1CCCCCCCCC1O (stereo not shown) [2-(1-hydroxyethyl)-cyclodecanol] | excellent noxious-insect repelling effect and durability
CC(O)C1CCCCCCCCCCC1=O (stereo not shown) [2-(1-hydroxyethyl)-cyclododecanone] | excellent noxious-insect repelling effect and durability
CC(O)C1CCCCCC1O (stereo not shown) [2-(1-hydroxyethyl)-cycloheptanol] | excellent noxious-insect repelling effect and durability
CC(O)C1CCCCCC1=O (stereo not shown) [2-(1-hydroxyethyl)-cycloheptanone] | excellent noxious-insect repelling effect and durability
CC(O)C1CCCCCCC1O (stereo not shown) [2-(1-hydroxyethyl)-cyclooctanol] | excellent noxious-insect repelling effect and durability
CC(O)C1CCCCCCC1=O (stereo not shown) [2-(1-hydroxyethyl)-cyclooctanone] | excellent noxious-insect repelling effect and durability
CC1CCC(C(C)(C)O)C1=O (stereo not shown) [2-(1-hydroxyisopropyl)-5-methyl-cyclopentanone] | excellent noxious-insect repelling effect and durability
CCC(O)C1CC(C)CCC1O (stereo not shown) [2-(1-hydroxypropyl)-4-methyl-cyclohexanol] | excellent noxious-insect repelling effect and durability
CCC1(CO)CCCCC1O (stereo not shown) [2-hydroxymethyl-2-ethyl-cyclohexanol] | excellent noxious-insect repelling effect and durability
CCC1(CO)CCCC1O (stereo not shown) [2-hydroxymethyl-2-ethyl-cyclopentanol] | excellent noxious-insect repelling effect and durability
CC(C)C1(CO)CCCCC1O (stereo not shown) [2-hydroxymethyl-2-isopropyl-cyclohexanol] | excellent noxious-insect repelling effect and durability
CC(C)C1(CO)CCCC1O (stereo not shown) [2-hydroxymethyl-2-isopropyl-cyclopentanol] | excellent noxious-insect repelling effect and durability
CCCCCCCCC1(CO)CCCCC1O (stereo not shown) [2-hydroxymethyl-2-octyl-cyclohexanol] | excellent noxious-insect repelling effect and durability
CCCCCCCCC1(CO)CCCC1O (stereo not shown) [2-hydroxymethyl-2-octyl-cyclopentanol] | excellent noxious-insect repelling effect and durability
CCCCCCCCCCCC1(CO)CCCCC1O (stereo not shown) [2-hydroxymethyl-2-undecyl-cyclohexanol] | excellent noxious-insect repelling effect and durability
